Source: US7767398B2, “Means and methods for diagnosing and treating affective disorders” (Affectis Pharmaceuticals AG, priority 2003, dated 2010)

What was measured:
mice [1] = assay: Open field test (locomotor activity); conditions: 50 μM BzATP, 24 hours after injection, vs vehicle
Method: Locomotor activity was monitored for a period of 30 minutes using a video camera. Overall distance traveled by the animals during the testing period was then analysed by means of VideoMot2 computer software (TSE GmbH, Bad Homburg).

mice [2] = assay: Porsolt's forced swim test; format: in vivo, mouse; conditions: 50 μM BzATP, 1 μl each side intrahippocampal, 24 hours after injection, DBA/2OIa mice
Method: Further validation of role of P2X7R in affective disorders was performed by examining its expression pattern in response to stress and treatment with antidepressant drugs. […] In parallel, a control group of mice was given vehicle solution (i.e. without paroxetine) using the same treatment regiment while a second control group of mice was left undisturbed and stress-free (i.e. untreated) during the same period of the experiments. At the end of the long-term treatment, part of the mice of each experimental group were tested in the dark/light box (test of anxiety behaviour) and in the Porsolt's forced swim test (test of depressive-like behaviour) to confirm the effectiveness of the treatment (FIG. 5). […] The other part of the experimental groups (i.e. mice without test experience) were decapitated, brains rapidly removed and frozen at −80° C. until usage.
The effects of P2X7R inhibition on depressive-like behaviour was assessed 24 hours and 48 hours after infusion of siRNA, control or vehicle according to the standard test paradigm, the Porsolt's forced swim test (Porsolt et al., Arch. Int. Pharmacodym. 229 (1977), 327-336; Porsolt, Rev. Neurosci. 11 (2000), 53-58). […] Compared to vehicle application, no influence of control double stranded RNA (5′-[…]-3′) on floating behaviour (passive stress coping) was detected. […] This interpretation becomes moreover evident when the effects of antidepressants on passive stress coping behaviour in the forced swim test are visualized (FIG. 5). Passive stress coping behaviour increased after acute intrahippocampal injection (bilateral, dentate gyrus) of siRNA targeting P2X7R. The Porsolt's forced swim test is a standard test used to assess the effectiveness of antidepressants and it has been proven by many studies that the test is selectively sensitive for these effects, given that the right animal model is used. The paradigm has been widely used to test pharmaceutical compounds and to validate animal models of depression, which show an increase in passive behaviour as do the mice where P2X7R has been inhibited (siRNA).
The forced swim test is a standard test that measures primary stress-induced reductions in avoidance or escape, termed behavioural despair. The test is used to determine the effectiveness of antidepressants, test new pharmaceutical compounds and validate animal models of depression (Porsolt et al., Arch. Int. Pharmacodym. 229 (1977), 327-336; Porsolt, Rev. Neurosci. 11 (2000), 53-58; Rénéric et al., Behav. Brain Res. 136 (2002), 521-532; Page et al., Psychopharmacology 165 (2003), 194-201; Kelliher et al., Psychoneuroendocrinology 28 (2003), 332-347). The test consists of placing a mouse for a period of 5 minutes into a glass cylinder containing water. Under such circumstances, the mouse cannot touch the bottom of the cylinder and is thus forced to swim. Time, latency and frequency of struggling versus floating are scored as behavioural parameters. […] Increased struggling (i.e. active attempts to escape) indicates active coping behaviour that can be interpreted as an improvement of depression-like symptoms. For example, treatment with serotonergic antidepressants reduce the total time spent floating (Borsini, Neurosci. Biobehav. Rev. 19 (1995), 377-395; Redrobe and Bourin, Psychopharmacology 138 (1998), 198-206, and in parallel increases the time of active behaviour (i.e. swimming or struggling; Lucki et al., Psychopharmacology 155 (2001), 315-322).
The behaviour of individual mice was assessed using the Porsolt's forced swim test 24 hours after injection of vehicle solution, KN-62, or oATP. A pre-exposure of 5 minutes to the test was performed 15-17 minutes after administration of vehicle, KN-62, or oATP. A description of the Porsolt's forced swim test is given in example 9. […]

2′-3′-O-(4-Benzoylbenzoyl)adenosine 5′-triphosphate [BzATP]
locomotor activity (overall distance traveled, 30 minutes) (mice [1]): No difference in locomotor activity
passive behaviour (time, frequency, latency of floating) in the forced swim test (mice [2]; latency and frequency of floating statistically significant): decrease
active escape attempts (time, frequency, latency of struggling) in the forced swim test (mice [2]; time struggling statistically significant): increase
